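Exposure lasted 48 hours, with cells grown in 96-well plates and compounds tested at five concentrations. GI50 = concentration required for 50% inhibition of growth. TGI: total growth inhibition.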
Columns and labels:
Assay in all cases: NCI anticancer screen, dose series, 48 h
[1] = tested on: UACC-257 melanoma
[2] = tested on: SF-268 CNS
[3] = tested on: SR leukemia
[4] = tested on: K-562 leukemia
[5] = tested on: NCI-H522 lung
[6] = tested on: T-47D breast
[7] = tested on: ACHN renal
[8] = tested on: NCI/ADR-RES ovarian
[9] = tested on: HOP-62 NSCLC
[10] = tested on: RXF 393 renal
[11] = tested on: HCT-15 colon
[12] = tested on: A549 NSCLC
[13] = tested on: U251 CNS
[14] = tested on: TK-10 renal
[15] = tested on: SK-OV-3 ovarian
[16] = tested on: UACC-62 melanoma
[17] = tested on: CCRF-CEM leukemia
[18] = tested on: PC-3 prostate
[19] = tested on: SK-MEL-5 melanoma
[20] = tested on: NCI-H460 lung
[21] = tested on: SF-295 CNS
[22] = tested on: MALME-3M melanoma
[23] = tested on: HOP-92 NSCLC
[24] = tested on: BT-549 breast
[25] = tested on: HS 578T breast
[26] = tested on: OVCAR-4 ovarian
[27] = tested on: CAKI-1 renal
[28] = tested on: SK-MEL-28 melanoma
[29] = tested on: SW-620 colon
[30] = tested on: OVCAR-8 ovarian
[31] = tested on: NCI-H226 lung
[32] = tested on: MDA-MB-435
[33] = tested on: MOLT-4 leukemia
[34] = tested on: MCF7 breast
[35] = tested on: SNB-75 CNS
[36] = tested on: UO-31 renal
[37] = tested on: HCT-116 colon
[38] = tested on: NCI-H23 lung
[39] = tested on: IGROV1 ovarian
[40] = tested on: KM12 colon
[41] = tested on: COLO 205 colon
[42] = tested on: SK-MEL-2 melanoma
[43] = tested on: OVCAR-5 ovarian
[44] = tested on: M14 melanoma
[45] = tested on: A498 renal
[46] = tested on: OVCAR-3 ovarian
[47] = tested on: SN12C renal
[48] = tested on: DU-145 prostate
[49] = tested on: RPMI-8226 leukemia
[50] = tested on: 786-0 renal
[51] = tested on: HCC-2998 colon
[52] = tested on: MDA-MB-231 breast
[53] = tested on: HT29 colon
[54] = tested on: LOX IMVI melanoma
[55] = tested on: SF-539 CNS
[56] = tested on: SNB-19 CNS
[57] = tested on: HL-60(TB) leukemia

Q: For `CNCC1CCn2c(c(C3=C(c4cn(C)c5ccccc45)C(=O)NC3=O)c3ccccc32)C1` (centres undefined), which GI50 [1] is on record?
A: 3.56 µM

Q: What about the TGI [1] of the same compound?
A: 7.55 µM

Q: What about the GI50 [2] of the same compound?
A: 4.17 µM

Q: What about the TGI [2] of the same compound?
A: 8.97 µM

Q: What about the GI50 [3] of the same compound?
A: 1.79 µM

Q: And the TGI [3]?
A: 8.78 µM

Q: What about the GI50 [4] of the same compound?
A: 3.29 µM

Q: What about the TGI [4] of the same compound?
A: 8.41 µM

Q: And the GI50 [5]?
A: 3.09 µM

Q: And the TGI [5]?
A: 6.49 µM

Q: What about the GI50 [6] of the same compound?
A: 3.27 µM

Q: What about the TGI [6] of the same compound?
A: 7.27 µM

Q: And the GI50 [7]?
A: 3.62 µM

Q: And the TGI [7]?
A: 13.1 µM

Q: And the GI50 [8]?
A: 10.2 µM

Q: What about the TGI [8] of the same compound?
A: 25 µM

Q: And the GI50 [9]?
A: 3.62 µM

Q: What about the TGI [9] of the same compound?
A: 9.99 µM

Q: What about the GI50 [10] of the same compound?
A: 3.09 µM

Q: What about the TGI [10] of the same compound?
A: 6.78 µM

Q: What about the GI50 [11] of the same compound?
A: 5.04 µM

Q: What about the TGI [11] of the same compound?
A: 16.5 µM

Q: What about the GI50 [12] of the same compound?
A: 3.16 µM

Q: And the TGI [12]?
A: 10.6 µM

Q: And the GI50 [13]?
A: 2.64 µM

Q: What about the TGI [13] of the same compound?
A: 5.91 µM

Q: What about the GI50 [14] of the same compound?
A: 2.78 µM

Q: What about the TGI [14] of the same compound?
A: 6.34 µM

Q: What about the GI50 [15] of the same compound?
A: 5.18 µM

Q: What about the TGI [15] of the same compound?
A: 16.4 µM

Q: What about the GI50 [16] of the same compound?
A: 3.16 µM

Q: What about the TGI [16] of the same compound?
A: 6.48 µM

Q: What about the GI50 [17] of the same compound?
A: 2.89 µM

Q: And the TGI [17]?
A: 12 µM

Q: And the GI50 [18]?
A: 2.39 µM

Q: And the TGI [18]?
A: 8.79 µM

Q: What about the GI50 [19] of the same compound?
A: 3.88 µM

Q: What about the TGI [19] of the same compound?
A: 7.97 µM

Q: What about the GI50 [20] of the same compound?
A: 2.91 µM

Q: What about the TGI [20] of the same compound?
A: 6.55 µM

Q: And the GI50 [21]?
A: 2.49 µM

Q: What about the TGI [21] of the same compound?
A: 6.38 µM

Q: And the GI50 [22]?
A: 2.13 µM

Q: And the TGI [22]?
A: 5.52 µM

Q: What about the GI50 [23] of the same compound?
A: 0.13 µM

Q: And the TGI [23]?
A: 8.64 µM

Q: And the GI50 [24]?
A: 4.36 µM

Q: And the TGI [24]?
A: 10.9 µM

Q: And the GI50 [25]?
A: 2.9 µM

Q: What about the TGI [25] of the same compound?
A: 8.7 µM

Q: What about the GI50 [26] of the same compound?
A: 4.17 µM

Q: What about the TGI [26] of the same compound?
A: 15.5 µM

Q: And the GI50 [27]?
A: 3.68 µM

Q: What about the TGI [27] of the same compound?
A: 9.28 µM

Q: And the GI50 [28]?
A: 3.78 µM

Q: And the TGI [28]?
A: 7.28 µM

Q: What about the GI50 [29] of the same compound?
A: 2.04 µM

Q: What about the TGI [29] of the same compound?
A: 5.6 µM

Q: And the GI50 [30]?
A: 3.87 µM

Q: What about the TGI [30] of the same compound?
A: 10.4 µM

Q: What about the GI50 [31] of the same compound?
A: 3.23 µM

Q: What about the TGI [31] of the same compound?
A: 14.2 µM

Q: And the GI50 [32]?
A: 2.75 µM

Q: What about the TGI [32] of the same compound?
A: 5.94 µM

Q: What about the GI50 [33] of the same compound?
A: 1.87 µM

Q: And the TGI [33]?
A: 8.74 µM

Q: And the GI50 [34]?
A: 1.74 µM

Q: What about the TGI [34] of the same compound?
A: 5.17 µM

Q: And the GI50 [35]?
A: 0.972 µM

Q: And the TGI [35]?
A: 4.66 µM

Q: What about the GI50 [36] of the same compound?
A: 2.6 µM

Q: And the TGI [36]?
A: 6.49 µM

Q: And the GI50 [37]?
A: 1.82 µM

Q: What about the TGI [37] of the same compound?
A: 5.56 µM

Q: And the GI50 [38]?
A: 2.99 µM

Q: And the TGI [38]?
A: 8.03 µM

Q: And the GI50 [39]?
A: 4.14 µM

Q: And the TGI [39]?
A: 9.9 µM

Q: And the GI50 [40]?
A: 3.41 µM

Q: What about the TGI [40] of the same compound?
A: 7.41 µM

Q: And the GI50 [41]?
A: 1.47 µM

Q: What about the TGI [41] of the same compound?
A: 4.77 µM

Q: What about the GI50 [42] of the same compound?
A: 3.33 µM

Q: And the TGI [42]?
A: 7.07 µM

Q: What about the GI50 [43] of the same compound?
A: 3.07 µM

Q: What about the TGI [43] of the same compound?
A: 20.9 µM

Q: What about the GI50 [44] of the same compound?
A: 3.05 µM

Q: What about the TGI [44] of the same compound?
A: 6.78 µM

Q: And the GI50 [45]?
A: 5.65 µM

Q: What about the TGI [45] of the same compound?
A: 14.5 µM

Q: What about the GI50 [46] of the same compound?
A: 3.98 µM

Q: And the TGI [46]?
A: 8.97 µM

Q: And the GI50 [47]?
A: 2.87 µM

Q: And the TGI [47]?
A: 9.28 µM

Q: What about the GI50 [48] of the same compound?
A: 3.76 µM

Q: What about the TGI [48] of the same compound?
A: 8.6 µM

Q: And the GI50 [49]?
A: 3.85 µM

Q: What about the TGI [49] of the same compound?
A: 9.86 µM

Q: What about the GI50 [50] of the same compound?
A: 4.88 µM

Q: And the TGI [50]?
A: 11 µM

Q: What about the GI50 [51] of the same compound?
A: 3.76 µM

Q: What about the TGI [51] of the same compound?
A: 7.77 µM

Q: And the GI50 [52]?
A: 2.54 µM

Q: What about the TGI [52] of the same compound?
A: 7.27 µM

Q: What about the GI50 [53] of the same compound?
A: 2.79 µM

Q: And the TGI [53]?
A: 8.18 µM

Q: What about the GI50 [54] of the same compound?
A: 3.84 µM

Q: And the TGI [54]?
A: 7.4 µM

Q: What about the GI50 [55] of the same compound?
A: 3.69 µM

Q: What about the TGI [55] of the same compound?
A: 7.21 µM

Q: And the GI50 [56]?
A: 4.58 µM

Q: And the TGI [56]?
A: 16.3 µM

Q: And the GI50 [57]?
A: 3.7 µM

Q: What about the TGI [57] of the same compound?
A: 8.61 µM

From PubChem BioAssay (NCI)
